Article PMC11152041, “Tricarbonyl rhenium(I) complexes with 8-hydroxyquinolines: structural, chemical, antibacterial, and anticancer characteristics” (RSC Advances, 2024)
Values after ≈ are worked out from the molar mass of the structure shown. Read-outs that look alike come from different tables or passages of the source.

How the values were obtained:
P. aeruginosa ATCC27853 = test: Broth microdilution MIC/MBC (ISO 20776-1); type: cell-based, Pseudomonas aeruginosa
Method: (§1) Bacterial strains and cell lines were obtained from the American Type Culture Collection (ATCC).[59] […] Antimicrobial activity was tested in Müeller Hinton (MH) II broth (Becton Dickinson). For anticancer activity assay, the following reagents from Merk were used: 3-(4,5-dimethylthiazol-2-yl)-2,5-diphenyltetrazolium bromide (MTT), sodium dodecyl sulfate (SDS) and HCl. The solubilized formazan product was spectrophotometrically quantified in a Power Wave XS (Bio Tek, Winooski, VT, USA) microplate reader. The HL-60 and PC-3 cells were grown in RPMI-1640 medium with stable glutamine (Biowest) supplemented with 10% (v/v) of heat-inactivated fetal bovine serum (FBS, Biowest) and 1% (v/v) of antibiotic–antimycotic solution (Biowest). The SKOV-3 cells were grown in McCoy's 5A medium with L-glutamine (Biowest) supplemented with 10% (v/v) heat-inactivated FBS, and 1% (v/v) antibiotic–antimycotic solution. The MCF-7 cells were grown in Eagle's MEM (Minimal Essential Medium) medium with stable glutamine (Biowest), supplemented with 10% (v/v) heat-inactivated FBS 1% (v/v) MEM non-essential amino acids (Biowest), 1% (v/v) antibiotic–antimycotic solution, and 1 mM sodium pyruvate (Merck). The MCF-10A cells were grown in Ham's F-12K (Kaighn's) Medium with stable glutamine (Gibco) supplemented with 5% (v/v) heat-inactivated FBS, 1% (v/v) MEM non-essential amino acids, 1% (v/v) antibiotic–antimycotic solution, 5 μg mL^−1 insulin, 0.04 μg mL^−1 hydrocortisone (Merck), and 15 ng mL^−1 human Epidermal Growth Factor (hEGF, PeproTech).
(§2) The in vitro antibacterial activity was determined according to ISO 20776-1.[88] Among the tested microorganisms were Gram-negative rods, E. coli ATCC25922 and P. aeruginosa ATCC27853, and Gram-positive cocci, S. aureus ATCC29213 and E. faecalis ATCC29212. The selected bacterial species represented the most common etiologic agents of human infections and are used for quality control of antimicrobial susceptibility testing.[89] The test procedure included the determination of MICs and MBCs of complexes and their free ligands. MIC and MBC determinations of ciprofloxacin, as the reference antibiotic, were also performed. All compounds were dissolved in DMSO to reach the maximum 512 mg L^−1 concentration. […] The assay consisted of preparing 2-fold dilutions of the substances in a liquid growth medium MH II and inoculating them with a standardized suspension of microorganisms at a McFarland density of 0.5 (≈10^8 CFU mL^−1). The culture plates were incubated at 35 °C for 24 h. The lowest concentration of the compound inhibiting visible bacterial growth was specified as MIC, and the concentration that reduced bacterial growth by >99.99% after counting live bacteria on the plates compared to the positive control was defined as MBC.

MCF-10A cells = test: MTT cytotoxicity assay; settings: for IC50: read-out: IC50 ± SD
Method: (§3) The cytotoxicities for studied compounds were evaluated against leukemia cells (HL-60), as well as ovarian (SKOV-3), prostate (PC-3), and breast (MCF-7) cancer cell lines. The potential selectivity of these compounds towards cancer cells was assessed by determination of their cytotoxicities towards breast non-cancerous cells (MCF-10A). For comparison, cisplatin was added to the cytotoxicity assays.
as §1
(§4) The cells were cultured in 96-well plates and incubated with the tested compound for 24 h and 48 h. All experiments were performed in exponentially growing cultures. The 0.03 M solutions of the compounds in DMSO were appropriately diluted using culture media. The maximal final concentration of DMSO in each well was 0.1%. The cytotoxicity of the compounds was measured by determining cell viability with a colorimetric test based on 3-(4,5-dimethylthiazol-2-yl)-2,5-diphenyltetrazolium bromide (MTT). MTT stock solution was added to each well to a final concentration of 0.5 mg mL^−1 and incubated for 4 h at 37 °C; following formazan crystals were dissolved by the addition of sodium dodecyl sulfate (SDS) solution (10% SDS in 0.001 M HCl). MTT and SDS were added directly to the cell culture. The compound's IC50 values (concentration required to reduce the viability of cells by 50% compared with the control cells) were calculated from the data obtained with the MTT assay.

S. aureus ATCC29213 = test: Broth microdilution MIC/MBC (ISO 20776-1); type: cell-based, Staphylococcus aureus
Method: as §1, §2

E. faecalis ATCC29212 = test: Broth microdilution MIC/MBC (ISO 20776-1); type: cell-based, Enterococcus faecalis
Method: as §1, §2

E. coli ATCC25922 = test: Broth microdilution MIC/MBC (ISO 20776-1); type: cell-based, Escherichia coli
Method: as §1, §2

MCF-7 cells = test: MTT cytotoxicity assay; type: cell-based, human; settings: for IC50: read-out: IC50 ± SD
Method: as §3, §1, §4

PC-3 cells = test: MTT cytotoxicity assay; type: cell-based, human; settings: for IC50: read-out: IC50 ± SD
Method: as §3, §1, §4

HL-60 cells = test: MTT cytotoxicity assay; type: cell-based, human; settings: read-out: IC50 ± SD
Method: as §3, §1, §4

SKOV-3 cells = test: MTT cytotoxicity assay; type: cell-based, human; settings: read-out: IC50 ± SD
Method: as §3, §1, §4

[1] = P. aeruginosa ATCC27853, >99.99% reduction of growth
[2] = P. aeruginosa ATCC27853, MH II broth, 35 °C, 24 h
[3] = MCF-10A (non-cancerous), 24 h, MTT, * precipitation of the complex
[4] = MCF-10A (non-cancerous), 48 h, MTT, * precipitation of the complex
[5] = S. aureus ATCC29213, >99.99% reduction of growth
[6] = S. aureus ATCC29213, MH II broth, 35 °C, 24 h
[7] = E. faecalis ATCC29212, >99.99% reduction of growth
[8] = E. faecalis ATCC29212, MH II broth, 35 °C, 24 h
[9] = E. coli ATCC25922, >99.99% reduction of growth
[10] = E. coli ATCC25922, MH II broth, 35 °C, 24 h

Row | Molecule | MBC (P. aeruginosa ATCC27853; [1]) | MIC (P. aeruginosa ATCC27853; [2]) | IC50 (MCF-10A cells; [3]) [µM] | IC50 (MCF-10A cells; [4]) [µM] | MBC (S. aureus ATCC29213; [5]) [mg/L] | MIC (S. aureus ATCC29213; [6]) [mg/L] | MBC (E. faecalis ATCC29212; [7]) [mg/L] | MIC (E. faecalis ATCC29212; [8]) [mg/L] | MBC (E. coli ATCC25922; [9]) | MIC (E. coli ATCC25922; [10]) | IC50 (MCF-7 cells; MCF-7, 24 h, MTT) [µM] | IC50 (MCF-7 cells; MCF-7, 48 h, MTT) [µM] | IC50 (PC-3 cells; PC-3, 24 h, MTT) [µM] | IC50 (PC-3 cells; PC-3, 48 h, MTT) [µM] | IC50 (HL-60 cells; HL-60, 24 h, MTT) [µM] | IC50 (HL-60 cells; HL-60, 48 h, MTT) [µM] | IC50 (SKOV-3 cells; SKOV-3, 24 h, MTT) [µM] | IC50 (SKOV-3 cells; SKOV-3, 48 h, MTT) [µM] | further results
1 | [Re(CO)3(ClQ)MeHim]·CH3CN [complex 10] | 512/>512 mg L^−1 | 512/>512 mg L^−1 | 15 ± 1 | 12 ± 1 | > 512 | 64 | > 512 | 4 | 512/>512 mg L^−1 | 512/>512 mg L^−1 | 54 ± 4 | 53 ± 4 | 23 ± 2 | 23 ± 2 | 5 ± 1 | 7 ± 1 | 34 ± 5 | 32 ± 7 | 
2 | Cc1ccc2cccc([O][Re])c2n1.[C-]#[O+].[C-]#[O+].[C-]#[O+].c1c[nH]cn1 [complex 5, [Re(CO)3(MeQ)Him]] | 64 mg/L | 16 mg/L | 50 ± 2 | > 50 | 512 | 16 | > 512 | 32 | 16/16 mg L^−1 | 16/16 mg L^−1 | 47 ± 7 | 43 ± 6 | 11 ± 3 | 28 ± 6 | 11 ± 2 | 4 ± 1 | 31 ± 5 | 26 ± 11 | fold better activity than the free MeHQ ligand (P. aeruginosa ATCC27853; P. aeruginosa, MIC/MBC compared with MeHQ): 4 fold; solubility in the cytotoxicity assay (MCF-10A cells; MCF-10A cell line culture medium): precipitated at higher concentrations; fold increase of MBC compared to the free ligand (E. faecalis ATCC29212; E. faecalis, compared with MeHQ): 4 fold; fold decline of MBC compared to the free ligand (E. coli ATCC25922; E. coli, compared with MeHQ): 5 fold; times lower effect after 48 h than after 24 h (PC-3 cells; PC-3, IC50 48 h versus 24 h): about 2.5 times
3 | Oc1cccc2cccnc12 [HQ, 8-hydroxyquinoline] |  |  |  |  |  |  |  |  |  |  |  |  |  |  |  |  |  |  | MBC (P. aeruginosa ATCC27853; Pseudomonas aeruginosa, ATCC27853): > 512 mg/L; MIC (P. aeruginosa ATCC27853; Pseudomonas aeruginosa, ATCC27853, 24 h): 256 mg/L (≈ 1760 µM); IC50 (MCF-10A cells; Homo sapiens, MCF-10A, 24 h): > 100 µM; IC50 (MCF-10A cells; Homo sapiens, MCF-10A, 48 h): > 100 µM; MBC (S. aureus ATCC29213; Staphylococcus aureus, ATCC29213): 64 mg/L (≈ 441 µM); MIC (S. aureus ATCC29213; Staphylococcus aureus, ATCC29213, 24 h): 16 mg/L (≈ 110 µM); MBC (E. faecalis ATCC29212; Enterococcus faecalis, ATCC29212): 32 mg/L (≈ 220 µM); MIC (E. faecalis ATCC29212; Enterococcus faecalis, ATCC29212, 24 h): 2 mg/L (≈ 13.8 µM); MBC (E. coli ATCC25922; Escherichia coli, ATCC25922): > 512 µg/mL; MIC (E. coli ATCC25922; Escherichia coli, ATCC25922, 24 h): 32 µg/mL (≈ 220 µM); IC50 (MCF-7 cells; Homo sapiens, MCF7, 24 h): 24 ± 6 µM; IC50 (MCF-7 cells; Homo sapiens, MCF7, 48 h): 7 ± 2 µM; selectivity: IC50 for normal cells times higher than for breast cancer cells (MCF-7 cells; MCF-10A versus MCF-7): at least 3 times; IC50 (PC-3 cells; Homo sapiens, PC-3, 24 h): 18 ± 2 µM; IC50 (PC-3 cells; Homo sapiens, PC-3, 48 h): 29 ± 3 µM; IC50 (HL-60 cells; Homo sapiens, HL-60, 24 h): 2.2 ± 0.2 µM; IC50 (HL-60 cells; Homo sapiens, HL-60, 48 h): 2 ± 0.2 µM; IC50 (SKOV-3 cells; Homo sapiens, SK-OV-3, 24 h): > 100 µM; IC50 (SKOV-3 cells; Homo sapiens, SK-OV-3, 48 h): 29 ± 5 µM
